Reference: patent US20050239656A1, “Pyridine compounds or salts thereof and herbicides containing the same” (priority 2002, published 2005)

How the values were obtained:
corn [1] = assay: Test Example 2: soil surface treatment, upland pot test; format: in vivo, Zea mays L.; settings: active ingredient 500 g/ha, observed 20th to 28th day
In short: (§1)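 Visual growth-control ratings, from 0 (like the non-treated plot) to 100 (total kill), were made between days 20 and 28 after a soil-surface spray. The compound, formulated as wettable powder or emulsifiable concentrate and diluted at 1,500 L/ha, went on one day post-sowing in upland-soil pots of 1/170,000 ha.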

rice [2] = assay: Test Example 1: foliage treatment, upland pot test; format: in vivo, Oryza sativa L.; settings: crop, active ingredient 500 g/ha, observed 18th to 23rd day, 0 = non-treated, 100 = complete kill
In short: (§2)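 Sow in upland field soil; grow to leaf stage (barnyardgrass 1.3–2.8, soybean 0.1–0.4, wheat 1.3–2.4, rice 1.2–2.6); spray foliage with compound in water, 500 L/ha, spreader 0.1% (v/v); assess visually at 18–23 d, 0 (as untreated) to 100 (full kill).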

redroot pigweed [3] = assay: Test Example 2: soil surface treatment, upland pot test; format: in vivo, Amaranthus retroflexus L.; settings: observed 20th to 28th day
In short: as §1

barnyardgrass [4] = assay: Test Example 3: paddy pot test, application under submerged conditions; format: in vivo, Echinochloa crus-galli L.; settings: submerged application at 0.5 leaf stage, visually observed 14 days after application, 0 = non-treated, 100 = complete kill
In short: (§3)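 Paddy soil pots; seeds sown, lightly covered; flooded 0.5–1 cm in greenhouse; wapato tubers planted day 1–2; flood raised to 3–4 cm. Submerged pipette application at 0.5 leaf / primary leaf stage. Visual score day 14, 0–100%.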

japanese bulrush = assay: as above; format: in vivo, Scirpus juncoides; settings: submerged application at 0.5 leaf stage, visually observed 14 days after application, 0 = non-treated, 100 = complete kill
In short: as §3

crabgrass [5] = assay: Test Example 2: soil surface treatment, upland pot test; format: in vivo, Digitaria sanguinalis L.; settings: observed 20th to 28th day
In short: as §1

soybean [6] = assay: as above; format: in vivo, Glycine max Merr.; settings: observed 20th to 28th day
In short: as §1

crabgrass [7] = assay: Test Example 1: foliage treatment, upland pot test; format: in vivo, Digitaria sanguinalis L.; settings: active ingredient 500 g/ha, observed 18th to 23rd day, 0 = non-treated, 100 = complete kill
green foxtail [8] = assay: Test Example 1: foliage treatment, upland pot test; format: in vivo, Setaria viridis L.; settings: active ingredient 500 g/ha, observed 18th to 23rd day, 0 = non-treated, 100 = complete kill
soybean [9] = assay: Test Example 1: foliage treatment, upland pot test; format: in vivo, Glycine max Merr.; settings: crop, active ingredient 500 g/ha, observed 18th to 23rd day, 0 = non-treated, 100 = complete kill
In short: as §2

prickly sida [10] = assay: Test Example 2: soil surface treatment, upland pot test; format: in vivo, Sida spinosa L.; settings: observed 20th to 28th day
In short: as §1

redroot pigweed [11] = assay: Test Example 1: foliage treatment, upland pot test; format: in vivo, Amaranthus retroflexus L.; settings: active ingredient 500 g/ha, observed 18th to 23rd day, 0 = non-treated, 100 = complete kill
rice (var. Nihonbare) = assay: Test Example 3: paddy pot test, transplanted rice; format: in vivo, Oryza sativa L.; settings: applied 4th day after transplantation, visually observed 21st day after application, 0 = non-treated, 100 = complete kill
In short: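 Visual crop-injury rating (0 = as untreated, 100 = complete kill, %) taken 21 days post-application. Treatment: formulated compound, water-diluted, pipetted into 3–4 cm flood water at a preset active-ingredient dose, 4 days after transplanting 2-leaf Nihonbare rice 3 cm deep in puddled paddy soil.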

velvetleaf [12] = assay: Test Example 2: soil surface treatment, upland pot test; format: in vivo, Abutilon theophrasti MEDIC.; settings: observed 20th to 28th day
In short: as §1

velvetleaf [13] = assay: Test Example 1: foliage treatment, upland pot test; format: in vivo, Abutilon theophrasti MEDIC.; settings: active ingredient 500 g/ha, observed 18th to 23rd day, 0 = non-treated, 100 = complete kill
wheat [14] = assay: Test Example 2: soil surface treatment, upland pot test; format: in vivo, Triticum spp.; settings: observed 20th to 28th day
In short: as §1

prickly sida [15] = assay: Test Example 1: foliage treatment, upland pot test; format: in vivo, Sida spinosa L.; settings: active ingredient 500 g/ha, observed 18th to 23rd day, 0 = non-treated, 100 = complete kill
barnyardgrass [16] = assay: Test Example 2: soil surface treatment, upland pot test; format: in vivo, Echinochloa crus-galli L.; settings: observed 20th to 28th day
In short: as §1

corn [17] = assay: Test Example 1: foliage treatment, upland pot test; format: in vivo, Zea mays L.; settings: crop, active ingredient 500 g/ha, observed 18th to 23rd day, 0 = non-treated, 100 = complete kill
In short: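 Corn seeds were sown in upland field soil held in a 1/170,000 ha pot and grown to the 2.1 to 3.2 leaf stage. A wettable powder or emulsifiable concentrate of the test compound was diluted with water at 500 L/ha, given 0.1% (v/v) agricultural spreader, and sprayed onto the foliage with a small sprayer. Growth controlling degree (%) was scored visually 18th to 23rd days later, from 0 (non-treated) to 100 (complete kill).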

rice [18] = assay: Test Example 2: soil surface treatment, upland pot test; format: in vivo, Oryza sativa L.; settings: observed 20th to 28th day
In short: as §1

barnyardgrass [19] = assay: Test Example 1: foliage treatment, upland pot test; format: in vivo, Echinochloa crus-galli L.; settings: active ingredient 500 g/ha, observed 18th to 23rd day, 0 = non-treated, 100 = complete kill
In short: as §2

wheat [20] = assay: Test Example 1: foliage treatment, upland pot test; format: in vivo, Triticum spp.; settings: crop, active ingredient 500 g/ha, observed 18th to 23rd day, 0 = non-treated, 100 = complete kill
Source text: Upland field soil was put into a 1/170,000 ha pot, and seed of various plants were sown. Then, when the plants reached predetermined leaf stages ((1) barnyardgrass: 1.3 to 2.8 leaf stages, (2) crabgrass: 1.0 to 2.8 leaf stages, (3) green foxtail: 1.3 to 2.6 leaf stages, (4) redroot pigweed: 0.1 to 1.2 leaf stages, (5) prickly sida: 0.1 to 1.2 leaf stages, (6) velvetleaf: 0.1 to 1.2 leaf stages, (7) tall morningglory: 0.1 to 1.5 leaf stages, (8) rice: 1.2 to 2.6 leaf stages, (9) wheat: 1.3 to 2.4 leaf stages, (10) corn, 2.1 to 3.2 leaf stages, (11) soybean: 0.1 to 0.4 leaf stage), a wettable powder or emulsifiable concentrate having the compound of the present invention formulated in accordance with a usual formulation method, was weighed so that the active ingredient would be a predetermined amount, and diluted with water in an amount of 500 L/ha. To the diluted solution, 0.1% (v/v) of agricultural spreader was added. The herbicide thus adjusted was applied by a small size sprayer for foliage treatment. On the 18th to 23rd days after the application of the herbicide, the growth of the respective plants was visually observed, and the herbicidal effects were evaluated by the growth controlling degrees (%) ranging from 0 (equivalent to the non-treated plot) to 100 (complete kill), whereby the results shown in Table 3, were obtained.

green foxtail [21] = assay: Test Example 2: soil surface treatment, upland pot test; format: in vivo, Setaria viridis L.; settings: observed 20th to 28th day
In short: as §1

japanese ribbon wapato = assay: Test Example 3: paddy pot test, application under submerged conditions; format: in vivo, Sagittaria pygniaea; settings: active ingredient 500 g/ha; submerged application at primary leaf stage; visually observed 14 days after application; 0 = non-treated, 100 = complete kill
In short: as §3

Row | Structure (SMILES) | Growth controlling degree (%) Corn (corn [1]) | Growth controlling degree (%) Rice (rice [2]) | Growth controlling degree (%) Redroot pigweed (redroot pigweed [3]; active ingredient 500 g/ha) | Growth controlling degree (%) Crabgrass (crabgrass [5]; active ingredient 500 g/ha) | Growth controlling degree (%) Soyabean (soybean [6]; active ingredient 500 g/ha) | Growth controlling degree (%) Crabgrass (crabgrass [7]) | Growth controlling degree (%) Green foxtail (green foxtail [8]) | Growth controlling degree (%) Soybean (soybean [9]) | Growth controlling degree (%) Prickly sida (prickly sida [10]; active ingredient 500 g/ha) | Growth controlling degree (%) Redroot pigweed (redroot pigweed [11]) | Growth controlling degree (%) Velvetleaf (velvetleaf [12]; active ingredient 500 g/ha) | Growth controlling degree (%) Velvetleaf (velvetleaf [13]) | Growth controlling degree (%) Prickly sida (prickly sida [15]) | Growth controlling degree (%) Barnyardgrass (barnyardgrass [16]; active ingredient 500 g/ha) | Growth controlling degree (%) Corn (corn [17]) | Growth controlling degree (%) Rice (rice [18]; active ingredient 500 g/ha) | Growth controlling degree (%) Barnyardgrass (barnyardgrass [19]) | Growth controlling degree (%) wheat (wheat [20]) | Growth controlling degree (%) Barnyardgrass (barnyardgrass [4]; active ingredient 500 g/ha) | Growth controlling degree (%) Japanese bulrush (japanese bulrush; active ingredient 500 g/ha) | also measured
1 | CC(Oc1ccc(Br)cc1)C(=O)N(C)C(c1cnccc1C(F)(F)F)C(C)C (mixture of isomers) [I-132] | 0% | 10% | 10% | 90% | 10% | 90% | 60% | 80% | 70% | 70% | 0% | 60% | 80% | 98% | 80% | 10% | 70% | 10% |  |  | Growth controlling degree (%) Barnyardgrass (barnyardgrass [4]; active ingredient 250 g/ha): 100%; Growth controlling degree (%) Japanese bulrush (japanese bulrush; active ingredient 250 g/ha): 80%; Growth controlling degree (%) Rice (rice (var. Nihonbare); active ingredient 250 g/ha): 20%; Growth controlling degree (%) wheat (wheat [14]; active ingredient 500 g/ha): 10%
2 | CCCC(=O)N(C)C(c1cnccc1C(F)(F)F)C(C)C (centres unmarked) [I-189, N-methyl-N-[2-methyl-1-(4-trifluoromethylpyridin-3-yl)propyl]butanamide] | 50% | 80% | 100% | 100% | 95% | 98% | 90% | 80% | 90% | 80% | 90% | 70% | 85% | 100% | 90% | 100% | 90% | 70% | 100% | 98% | Growth controlling degree (%) Green foxtail (green foxtail [21]; active ingredient 500 g/ha): 100%; Growth controlling degree (%) Rice (rice (var. Nihonbare); active ingredient 500 g/ha): 95%; Growth controlling degree (%) Japanese ribbon wapato (japanese ribbon wapato): 95%
3 | C=CC(=O)N(C)C(c1cnccc1C(F)(F)F)C(C)C (centres unmarked) [I-190] | 10% | 70% | 80% | 100% | 30% | 80% | 80% | 60% | 90% | 70% | 50% | 60% | 70% | 100% | 70% | 98% | 80% | 70% | 100% | 98% | Growth controlling degree (%) Green foxtail (green foxtail [21]; active ingredient 500 g/ha): 100%; Growth controlling degree (%) Rice (rice (var. Nihonbare); active ingredient 500 g/ha): 95%; Growth controlling degree (%) Japanese ribbon wapato (japanese ribbon wapato): 90%
4 | CC(C)C(c1cnccc1C(F)(F)F)N(C)C(=O)Cc1csc2ccccc12 (centres unmarked) [I-192] | 10% | 10% | 10% | 80% |  |  | 60% | 80% | 0% | 80% | 0% | 70% | 90% | 98% |  | 10% | 80% | 0% | 100% | 90% | Growth controlling degree (%) Green foxtail (green foxtail [21]; active ingredient 500 g/ha): 80%; Growth controlling degree (%) Rice (rice (var. Nihonbare); active ingredient 500 g/ha): 30%; Growth controlling degree (%) wheat (wheat [14]; active ingredient 500 g/ha): 0%
5 | CCCCC(=O)N(C)C(c1cnccc1C(F)(F)F)C(C)C (centres unmarked) [I-199] |  | 50% |  |  |  | 80% | 70% | 60% |  | 60% |  | 60% | 70% |  | 60% |  | 70% | 50% |  |  | Growth controlling degree (%) Redroot pigweed (redroot pigweed [3]; active ingredient 250 g/ha): 70%; Growth controlling degree (%) Barnyardgrass (barnyardgrass [4]; active ingredient 250 g/ha): 100%; Growth controlling degree (%) Japanese bulrush (japanese bulrush; active ingredient 250 g/ha): 98%; Growth controlling degree (%) Crabgrass (crabgrass [5]; active ingredient 250 g/ha): 100%; Growth controlling degree (%) Soyabean (soybean [6]; active ingredient 250 g/ha): 20%; Growth controlling degree (%) Prickly sida (prickly sida [10]; active ingredient 250 g/ha): 80%; Growth controlling degree (%) Green foxtail (green foxtail [21]; active ingredient 250 g/ha): 100%; Growth controlling degree (%) Rice (rice (var. Nihonbare); active ingredient 250 g/ha): 40%; Growth controlling degree (%) Velvetleaf (velvetleaf [12]; active ingredient 250 g/ha): 50%; Growth controlling degree (%) wheat (wheat [14]; active ingredient 250 g/ha): 50%; Growth controlling degree (%) Barnyardgrass (barnyardgrass [16]; active ingredient 250 g/ha): 100%; Growth controlling degree (%) Rice (rice [18]; active ingredient 250 g/ha): 90%
